As usually defined, the IC50 is the concentration that inhibits the measured activity by half.

The values that follow come from patent publication US9169252B2 (BRISTOL-MYERS SQUIBB COMPANY, priority 2014, dated 2015).

Assay [1] has as its target IRAK4 (Homo sapiens (Human), UniProt Q9NWZ3). Nature of the assay: IRAK4 Inhibition Assay. The format is biochemical. To be noted: IRAK4 Inhibition Assay; ATP 500 μM; read-out: IRAK4 IC50. In outline: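 Mobility-shift readout: fluorescent substrate and phosphoproduct resolved electrophoretically on Caliper LabChip 3000 after EDTA quench (35 mM). Enzyme reaction of IRAK4, substrates and test compound ran 60 min at room temperature.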

The test system of assay [2] is TLR2 induced IL-6 in peripheral blood mononuclear cells (PBMCs). Briefly: PBMC TLR2 Induced IL-6 Assay. Conditions: Homo sapiens, PBMC, PBMC TLR2 Induced IL-6 Assay; lipoteichoic acid stimulation, IL-6 by ELISA; read-out: Cell IC50. In kind it is cell-based, human. The gist of the method: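 Lipoteichoic acid at 10 µg/ml served as TLR2 stimulus for 5 hours, following a 30-minute compound pretreatment at 37° C. Cells were Ficoll-isolated human PBMCs, 250000 cells/well, cultured in RPMI plus 10% heat-inactivated FCS.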
A general note: In an ELISA, binding on a coated surface is turned into a signal by an enzyme label.

Sequence of IRAK4 (Q9NWZ3 whole entry, species assumed): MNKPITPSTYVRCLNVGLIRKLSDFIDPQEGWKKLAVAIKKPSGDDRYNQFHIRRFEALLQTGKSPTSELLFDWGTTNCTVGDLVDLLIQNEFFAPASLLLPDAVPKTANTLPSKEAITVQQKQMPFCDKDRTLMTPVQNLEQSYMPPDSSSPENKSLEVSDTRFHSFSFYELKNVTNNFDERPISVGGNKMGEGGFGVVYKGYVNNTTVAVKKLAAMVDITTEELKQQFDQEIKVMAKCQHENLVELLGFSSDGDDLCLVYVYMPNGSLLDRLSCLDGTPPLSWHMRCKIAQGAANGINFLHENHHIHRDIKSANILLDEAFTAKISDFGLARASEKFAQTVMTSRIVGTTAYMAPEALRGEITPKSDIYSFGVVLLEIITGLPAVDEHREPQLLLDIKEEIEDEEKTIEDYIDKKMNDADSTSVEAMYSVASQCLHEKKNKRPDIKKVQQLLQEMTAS

With `CCS(=O)(=O)N1CCC(NC(=O)c2cnc(-n3ncc4cc(C#N)cnc43)cc2NC(C)C)CC1` [Example 290], the IC50 is 5.9 nM in assay [1] and 364 nM in assay [2].

`COC1CCC(O)(CCNC(=O)c2cnc(-n3ncc4cc(C#N)cnc43)cc2NC(C)C)CC1` (centres unmarked) [Example 291]: the IC50 in assay [1] is 3.5 nM; in assay [2] it was 349 nM.

As for `CC1(Nc2cc(-n3ncc4cc(C#N)cnc43)ncc2C(=O)NC[C@@H](F)C(C)(C)O)CC1` [Example 292], the IC50 in assay [1] worked out at 2.7 nM; in assay [2], 456 nM.

`CC(C)(C)Nc1cc(-n2ncc3cc(C#N)c(N)nc32)ncc1C(=O)NC[C@@H](F)C(C)(C)O` [Example 293]: the figures for the IC50 in assay [1] and in assay [2] were 1 nM and 32 nM, respectively.

On to `CC(C)Nc1cc(-n2ncc3cc(C#N)cnc32)ncc1C(=O)NCC(F)=C1CCOCC1` [Example 294], for which the IC50 in assay [1] was determined as 13.4 nM; in assay [2] it was 292 nM.

`CC(C)Nc1cc(-n2ncc3cc(C#N)c(N)nc32)ncc1C(=O)NC[C@@H](F)C(C)(C)F` [Example 295]: the IC50 in assay [1] came out at 1.9 nM; in assay [2], 240 nM.

On to `CC(C)Nc1cc(-n2ncc3cc(C#N)cnc32)ncc1C(=O)N[C@@H]1CC[C@@H](C(C)(C)O)OC1` [Example 296], for which the IC50 in assay [1] came to 7.1 nM; in assay [2], 412 nM.

Take `CC(C)CCNC(=O)c1cnc(-n2ncc3cc(C#N)cnc32)cc1NC(C)C` [Example 298]: the values for the IC50 in assay [1] and in assay [2] were 4.5 nM and 142 nM, respectively.

On to `CC(C)Nc1cc(-n2ncc3cc(C#N)c(N)nc32)ncc1C(=O)NCCC1CC1` [Example 299], for which the IC50 stood at 6.3 nM in assay [1] and 252 nM in assay [2].

On to `CC[C@@H](C)Nc1cc(-n2ncc3cc(C#N)c(N)nc32)ncc1C(=O)NC[C@@H](F)C(C)(C)O` [Example 300], for which the IC50 in assay [1] was 1.6 nM; in assay [2], 83 nM.

Turning to `CC(Nc1cc(-n2ncc3cc(C#N)c(N)nc32)ncc1C(=O)NC[C@@H](F)C(C)(C)O)C(F)(F)F` (some centres unmarked) [Example 301], the values for the IC50 in assay [1] and in assay [2] were 2.4 nM and 63 nM, respectively.

`CC(C)Nc1cc(-n2ncc3cc(C#N)cnc32)ncc1C(=O)NCCC1CC1` [Example 302]: the IC50 in assay [1] stood at 4.1 nM; in assay [2] it was 148 nM.

On to `CC(C)CCNC(=O)c1cnc(-n2ncc3cc(C#N)c(N)nc32)cc1NC(C)C` [Example 303], for which the IC50 in assay [1] is 3.5 nM; in assay [2], 176 nM.

For the compound `CC(C)Nc1cc(-n2ncc3cc(C#N)cnc32)ncc1C(=O)Nc1cnn(CC(C)(C)O)c1` [Example 304], the values for the IC50 in assay [1] and in assay [2] were 10.7 nM and 408 nM, respectively.

Take `CNC(=O)c1cnc(-n2ncc3cc(C#N)c(N)nc32)cc1NC(C)C` [Example 305]: the IC50 was determined as 9.2 nM in assay [1] and 207 nM in assay [2].

As to `CC(C)Nc1cc(-n2ncc3cc(C#N)cnc32)ncc1C(=O)NCCC(C)(C)NS(C)(=O)=O` [Example 306], the values for the IC50 in assay [1] and in assay [2] were 4.8 nM and 800 nM, respectively.

Regarding `CC(C)Nc1cc(-n2ncc3cc(C#N)c(N)nc32)ncc1C(=O)NCCC(C)(C)F` [Example 307], the figures for the IC50 in assay [1] and in assay [2] were 2 nM and 127 nM, respectively.

In the case of `CC(C)Nc1cc(-n2ncc3cc(C#N)cnc32)ncc1C(=O)NC[C@@H](F)C(C)(C)F` [Example 308], the IC50 in assay [1] was found to be 3 nM; in assay [2], 73 nM.

For `CC(C)Nc1cc(-n2ncc3cc(C#N)cnc32)ncc1C(=O)NC1CCN(S(=O)(=O)NC(C)C)CC1` [Example 309], the IC50 in assay [1] was determined as 18.4 nM; in assay [2], 207 nM.

`CC(C)Nc1cc(-n2ncc3cc(C#N)cnc32)ncc1C(=O)NCCC1CCOCC1` [Example 310]: the IC50 was found to be 4.5 nM in assay [1] and 23 nM in assay [2].

On to `CC(C)Nc1cc(-n2ncc3cc(C#N)cnc32)ncc1C(=O)NCCc1c[nH]cn1` [Example 311], for which the results for the IC50 in assay [1] and in assay [2] were 4.7 nM and 347 nM, respectively.

For `CC(C)Nc1cc(-n2ncc3cc(C#N)cnc32)ncc1C(=O)NC[C@@H](F)C(C)C` [Example 312], the IC50 in assay [1] is 9.2 nM; in assay [2], 375 nM.

With `CNS(=O)(=O)N1CCC(NC(=O)c2cnc(-n3ncc4cc(C#N)cnc43)cc2NC(C)C)CC1` [Example 313], the IC50 in assay [1] came out at 14.7 nM; in assay [2] it was 289 nM.

Turning to `CC(C)Nc1cc(-n2ncc3cc(C#N)cnc32)ncc1C(=O)NC[C@@H](F)C(C)(C)OC(F)F` [Example 314], the IC50 was found to be 13.7 nM in assay [1] and 420 nM in assay [2].

In the case of `CC(C)Nc1cc(-n2ncc3cc(C#N)cnc32)ncc1C(=O)NC[C@@H](F)C(O)(C1CC1)C1CC1` [Example 315], the figures for the IC50 in assay [1] and in assay [2] were 10.7 nM and 267 nM, respectively.

As for `CC(=O)N[C@H]1CC[C@H](NC(=O)c2cnc(-n3ncc4cc(C#N)c(N)nc43)cc2NC(C)C)CC1` [Example 317], the IC50 in assay [1] was determined as 3.8 nM; in assay [2] it was 172 nM.

For the compound `C[C@@H](CO)Nc1cc(-n2ncc3cc(C#N)cnc32)ncc1C(=O)NCCC1CC1` [Example 318], the IC50 in assay [1] amounted to 7.9 nM; in assay [2], 188 nM.

With `CCCCNC(=O)c1cnc(-n2ncc3cc(C#N)cnc32)cc1N[C@@H](C)CO` [Example 319], the IC50 in assay [1] came out at 6.5 nM; in assay [2], 191 nM.

For the compound `CC(C)CCNC(=O)c1cnc(-n2ncc3cc(C#N)cnc32)cc1N[C@@H](C)CO` [Example 320], the IC50 came out at 5.6 nM in assay [1] and 261 nM in assay [2].

Turning to `COC(C)(C)[C@H](F)CNC(=O)c1cnc(-n2ncc3cc(C#N)c(N)nc32)cc1NC(C)C` [Example 321], the IC50 in assay [1] came to 3.1 nM; in assay [2], 53 nM.

`CC(C)Nc1cc(-n2ncc3cc(C#N)c(N)nc32)ncc1C(=O)NC1(C)CC1` [Example 322]: the results for the IC50 in assay [1] and in assay [2] were 6.7 nM and 159 nM, respectively.

On to `CC(C)Nc1cc(-n2ncc3cc(C#N)c(N)nc32)ncc1C(=O)N[C@H](C)C1CC1` [Example 323], for which the IC50 in assay [1] came out at 17.3 nM; in assay [2], 612 nM.

On to `CC(C)Nc1cc(-n2ncc3cc(C#N)c(N)nc32)ncc1C(=O)NC1CCCCC1` [Example 324], for which the IC50 came out at 6.6 nM in assay [1] and 278 nM in assay [2].

Consider `CC(C)Nc1cc(-n2ncc3cc(C#N)c(N)nc32)ncc1C(=O)NC1(C#N)CC1` [Example 325], for which the IC50 in assay [1] was 6 nM; in assay [2], 227 nM.

`CCCNC(=O)c1cnc(-n2ncc3cc(C#N)c(N)nc32)cc1NC(C)C` [Example 326]: the figures for the IC50 in assay [1] and in assay [2] were 11.4 nM and 30 nM, respectively.

In the case of `CC(C)Nc1cc(-n2ncc3cc(C#N)c(N)nc32)ncc1C(=O)NC1C=CCC1` (centres unmarked) [Example 327], the IC50 in assay [1] amounted to 11.1 nM; in assay [2] it was 181 nM.

Take `CC(C)Nc1cc(-n2ncc3cc(C#N)c(N)nc32)ncc1C(=O)NC[C@@H](C)F` [Example 328]: the values for the IC50 in assay [1] and in assay [2] were 10 nM and 11 nM, respectively.

`CC(C)Nc1cc(-n2ncc3cc(C#N)cnc32)ncc1C(=O)NCC(F)C1CCOCC1` (centres unmarked) [Example 329]: the IC50 came to 4.9 nM in assay [1] and 76 nM in assay [2].

Regarding `CC(C)Nc1cc(-n2ncc3cc(Cl)cnc32)ncc1C(=O)NC[C@@H](F)C(C)(C)F` [Example 330], the results for the IC50 in assay [1] and in assay [2] were 4.3 nM and 512 nM, respectively.

Turning to `CC(C)Nc1cc(-n2ncc3cc(C#N)cnc32)ncc1C(=O)NCCC1(O)CC1` [Example 331], the IC50 in assay [1] worked out at 6.2 nM; in assay [2], 57 nM.
